Reference: patent US11541067B2, “HMO compositions and methods for reducing detrimental proteolytic metabolites” (Glycom A/S, priority 2017, dated 2023)

System: microbial metabolites
Experiment: M-SHIME (M-TripleSHIME) in vitro gastrointestinal model: bacterial metabolite analysis
Type: cell-based, human
Settings: proximal (PC) and distal (DC) colon reactor; FIG. 1 in mg/l, means of three weekly samples
Source text: The impact of the HMOs on microbiota and bacterial metabolites was investigated in the M-SHIME® (M-TripleSHlME®) in vitro gastrointestinal model (Prodigest). The typical reactor setup of the M-TripleSHIME® consisted of a succession of four reactors simulating the different parts of the human gastrointestinal tract. The first two reactors were of the fill-and-draw principle to simulate different steps in food uptake and digestion, with peristaltic pumps adding a defined amount of SHIME feed (140 mL 3×/day) and pancreatic and bile liquid (60 ml 3×/day), respectively, to the stomach and small intestine compartment and emptying the respective reactors after specified intervals. The last two compartments were continuously stirred reactors with constant volume and pH control. […]
The M-TripleSHIME® was run in four stages: • 1. […] The baseline microbial community composition and activity in the different reactors was determined by analysis of samples and was used as a reference. • 3. […]
Sample of the liquids in each reactor were collected regularly (three times in a week, on day 1, day 3 and day 5) and were analysed for microbial metabolites and the composition of the resident microbial community. In particular, the bifidobacteria composition was analysed using ITS profiling.

SMILES: CC(=O)N[C@H]1[C@H](O[C@H]2[C@@H](O)[C@@H](CO)O[C@@H](O[C@H]3[C@H](O)[C@@H](O)C(O)O[C@@H]3CO)[C@@H]2O)O[C@H](CO)[C@@H](O[C@@H]2O[C@H](CO)[C@H](O)[C@H](O)[C@H]2O)[C@@H]1O (mixture of isomers) [LNnT, lacto-N-neotetraose]
- ammonia production compared with the effect of 2′-FL (FIG. 1): similar
- branched SOFA production compared with the effect of 2′-FL (FIG. 1): similar
